From US9062088B2, “CDK-inhibiting pyrrolopyrimidine carboxamide derivative or pharmaceutically acceptable salt thereof, and pharmaceutical composition containing the same as active ingredient for preventing or treating hepatocellular carcinoma” (SNU R&DB Foundation, priority 2010, dated 2015) come the findings set out here.

The viability is the share of living cells, or the viability signal relative to a control.

Assay [1] relates to SNU-354 cells. In words: MTT assay, cell viability. Particulars: Homo sapiens, SNU-354, read-out: Cell viability (%). Format: cell-based. How it is done: Cell viability was measured by MTT assay. SNU-354 cells in the log phase of cell growth curve were distributed in a 24-well plate at the density of 2×10^4 cells/well. […] After allowing enough time for reaction, MTT reagent (MTT dissolved in PBS at the concentration of 5 mg/mL) (Sigma-Aldrich, USA) was added to each well, followed by reaction at 37° C. for 3 hours. Then, the supernatant was eliminated and the precipitated formazan crystals were dissolved in dimethyl sulfoxide, followed by measurement of absorbance with ELISA plate reader.
(In general: Tetrazolium dyes change colour on reduction, which living cells bring about.)

In assay [2] the test system is SNU-354 cells. In words: Western blotting of PARP cleavage. Conditions: FIG. 17. Type of assay: cell-based, human. How it is done:
(§1) After treating the compound of Example 2 to SNU-354 cells, cell pellet was lysed with lysis buffer (0.5% triton X-100, 20 mM Tris-HCl (pH 7.5), 2 mM magnesium chloride, 1 mM DTT, 1 mM EGTA, 50 mM β-glycerophosphate, 25 mM sodium fluoride, 1 mM Na3VO4, 2 μg/mL leupeptin, 2 μg/mL pepstatin A, 100 μg/mL phenylmethylsulfonyl fluoride, and 1 μg/mL antipain) at 4° C. for 1 hour, followed by quantification of protein. A proper amount of protein was electrophoresed on SDS-PAGE gel and then transferred onto polyvinylidene difluoride membrane (Millipore Co., Bedford, Mass.). The membrane was reacted in inhibiting solution (PBS, 5% skim milk, 0.1% tween-20) at room temperature for 1˜2 hours. The membrane was reacted with the primary antibody (goat anti-phospho-Rb, rabbit anti-nucleolin) diluted in the inhibiting solution (1:1000). Then, the membrane was washed with PBST, followed by reaction with the proper secondary antibody (horseradish peroxidase (HRP) conjugated) at room temperature for 1 hour.
Experiment was performed by the same manner as described in step 2 of Experimental Example 2 except that rabbit anti-PARP was used as the primary antibody and the results are shown in FIG. 17.
For orientation: A western blot detects proteins with antibodies after separation by electrophoresis.

For assay [3], the system named is SNU-354 cells. In words: 3H-thymidine incorporation assay. Format: cell-based, human. Particulars: 18˜24 hours. How it is done: SNU-354 cells were distributed in a 6-well plate at the density of 5×10^4 cells/well, followed by culture in FBS-free medium for 24 hours. 24 hours later, the medium was replaced with the fresh one supplemented with FBS, the compounds of Examples 1 and 2 at different concentrations and 1 μCi/mL [^3H]dT (GE Healthcare, UK). 18˜24 hours later, the cells were washed with cold PBS and then fixed with cold 5% trichloroacetic acid. DNA was lysed in […] sodium hydroxide at 37° C. for 1 hour. Then, [^3H]dT incorporated during intracellular DNA synthesis was measured by LSC (liquid scintillation counting). Intracellular DNA synthesis measured above was used as index for the evaluation of cell viability.
A general note: Incorporation of labelled thymidine or its analogues reports DNA synthesis.

The target of assay [4] is T1, Cdk7/cyclin H/MAT1 (Homo sapiens, UniProt P50613).
T1 construct: purchased Upstate
In words: In vitro kinase assay of Cdk7, RNA Pol II-CTD-GST substrate. Format: biochemical. Conditions: 0 nM = 100. The procedure:
To kinase assay buffer were added RNA Pol II-CTD-GST protein (Jena Bioscience, Germany) as a substrate, Cdk9/cyclin T1 or Cdk7/cyclin H/MAT1 recombinant protein (Upstate) as an enzyme, 2.5 μCi [γ-32P]ATP, and 100 μM MgAc/ATP. The total reaction volume was adjusted to 50 μl. Kinase assay reaction was induced at 30° C. for 20 minutes. Upon completion of the reaction, electrophoresis was performed on 8% SDS-polyacrylamide gel. The activities of Cdk7 and Cdk9 over the concentrations of the compounds of Example 1 and Example 2 were confirmed by autoradiography and the results are shown in FIG. 5˜FIG. 8 and Table 3.
The intensity of bands was analyzed by densitometry (GS-800, Bio-Rad).

The subject of assay [5] is SNU-354 xenografted tumor. In words: TUNEL assay and cleaved caspase-3 immunohistochemistry of xenografted tumor. Format: in vivo, nude mice. Conditions: 4 and 20 mg/kg vs control; FIG. 23-A. How it is done: All the xenografted tumors and liver tissues extracted above were fixed in 36% formaldehyde solution (Junsei Chemical Co., Ltd, Tokyo, JAPAN), followed by paraffin embedding. The embedded tissues were cut into 5 μm sections. H&E staining and TUNEL assay were performed for examining apoptosis with those sections. The expression of cleaved caspase-3 in the tissue section was measured by using cleaved caspase-3 monoclonal antibody (Cell Signaling, MA, USA). ABC peroxidase (Dako Cytomation California, Inc., CA, USA) labeling was performed for immunological sensitization and the results are shown in FIG. 23. As shown in FIG. 23-A, TUNEL positive spots and caspase-3 positive spots were observed more in the group treated with the compound of Example 2 than in the control. […] As shown in FIG. 23-B, it was investigated whether or not the compound of Example 2 could affect normal liver tissues.

The subject of assay [6] is p-Rb (Cdk2). In words: Western blotting of p-Rb (Cdk2) in SNU-354 cells. Format: cell-based, human. The procedure: (§2) SNU-354 cells were cultured in RPMI 1640 (Invitrogen, CA, USA) supplemented with 10% FBS (Invitrogen) and antibiotics/antimycotics (Invitrogen) in a 5% CO2 incubator at 37° C. […]
as §1

For assay [7], the system named is p-Nucleolin (Cdk1). Briefly: Western blotting of p-nucleolin (Cdk1) in SNU-354 cells. Type of assay: cell-based, human. The procedure:
as §2, §1

T1 sequence (P50613 whole entry): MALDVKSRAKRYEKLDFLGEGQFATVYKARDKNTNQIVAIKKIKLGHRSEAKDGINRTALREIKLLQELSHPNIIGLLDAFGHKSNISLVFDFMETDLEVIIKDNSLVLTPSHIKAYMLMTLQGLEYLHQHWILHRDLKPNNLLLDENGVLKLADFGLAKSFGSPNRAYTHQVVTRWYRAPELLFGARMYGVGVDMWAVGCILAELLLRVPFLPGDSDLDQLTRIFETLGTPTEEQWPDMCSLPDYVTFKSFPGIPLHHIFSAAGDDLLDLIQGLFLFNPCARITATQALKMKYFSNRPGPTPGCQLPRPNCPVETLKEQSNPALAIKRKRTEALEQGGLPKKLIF
T1 sequence (P51946 whole entry partner): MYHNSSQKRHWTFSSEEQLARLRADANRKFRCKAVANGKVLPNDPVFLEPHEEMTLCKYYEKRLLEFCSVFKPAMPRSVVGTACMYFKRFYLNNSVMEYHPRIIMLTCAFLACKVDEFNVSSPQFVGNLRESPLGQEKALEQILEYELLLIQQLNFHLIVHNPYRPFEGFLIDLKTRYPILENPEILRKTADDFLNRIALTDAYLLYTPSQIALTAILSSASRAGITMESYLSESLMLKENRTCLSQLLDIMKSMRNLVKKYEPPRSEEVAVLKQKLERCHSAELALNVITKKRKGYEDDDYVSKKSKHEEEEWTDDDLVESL
T1 sequence (P51948 whole entry partner): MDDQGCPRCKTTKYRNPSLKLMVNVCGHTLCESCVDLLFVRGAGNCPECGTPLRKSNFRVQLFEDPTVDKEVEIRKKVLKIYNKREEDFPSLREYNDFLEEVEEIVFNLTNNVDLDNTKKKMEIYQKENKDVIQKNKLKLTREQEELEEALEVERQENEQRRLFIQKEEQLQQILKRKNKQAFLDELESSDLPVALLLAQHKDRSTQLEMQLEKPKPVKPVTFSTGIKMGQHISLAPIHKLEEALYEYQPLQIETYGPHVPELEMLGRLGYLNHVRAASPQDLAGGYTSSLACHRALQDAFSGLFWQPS

With `NC(=O)c1c(Br)nc2n([C@H]3O[C@@H](CO)[C@H](O)[C@H]3O)cnc(N)c1-2` [Example 1, 4-amino-6-bromo-1-((2S,3R,4R,5S)-3,4-dihydroxy-5-(hydroxymethyl)-tetrahydrofuran-2-yl)-1H-pyrrolo[2,3-d]pyrimidine-5-carboxamide], in assay [1], the viability at 0.5 µM worked out at 96.4%, the viability at 1 µM was determined as 84.3%, the viability at 2 µM is 74% and the viability at 5 µM was found to be 68%. In assay [1], the viability at 10 µM is 55.6% and the viability at 50 µM worked out at 36.6%. The “PARP cleavage, time from the treatment after which it was caused” value in assay [2] is 12 h. Also, the “^3H-thymidine incorporation (%)” value in assay [3] (5.0 μM) is 84.0%. The “^3H-thymidine incorporation (%)” value in assay [3] (10.0 μM) was 35.2%. For the same molecule, the “^3H-thymidine incorporation (%)” value in assay [3] (50.0 μM) worked out at 15.8%. In assay [4] (10 nM), this molecule had a Cdk7 activity of 41.8%. Further, the Cdk7 activity in assay [4] (100 nM) was found to be 10.8%. The Cdk7 activity in assay [4] (1000 nM) came out at 5.8%.

For the molecule `CC(C)C(=O)OC[C@@H]1O[C@H](n2cnc(N)c3c(C(N)=O)c(Br)nc2-3)[C@H](O)[C@H]1O` [Example 2, ((2S,3R,4R,5S)-5-(4-amino-6-bromo-5-carbamoyl-1H-pyrrolo[2,3-d]pyrimidin-1-yl)-3,4-dihydroxy-tetrahydrofuran-2-yl)methyl isobutyrate], the “TUNEL positive spots and caspase-3 positive spots in xenografted tumor” value in assay [5] is “observed more”. The viability at 0.5 µM in assay [1] worked out at 86.3%. Further, the viability at 1 µM in assay [1] was determined as 75.5%. For the same molecule, the viability at 2 µM in assay [1] is 64.7%. The viability at 5 µM in assay [1] was 47.6%. Moreover, the viability at 10 µM in assay [1] turned out to be 35.4%. Further, the viability at 50 µM in assay [1] was 16.8%. Also, the “PARP cleavage, time from the treatment after which it was caused” value in assay [2] is 6 h. Also, the “Phosphorylation (%) p-Rb(Cdk2)” value in assay [6] (treatment time 6 (hours)) is listed as 3.6%; in assay [6] (treatment time 12 (hours)), 2.7%; in assay [6] (treatment time 18 (hours)), 0.6%; in assay [6] (treatment time 24 (hours)), 0.3%. For the same molecule, the “^3H-thymidine incorporation (%)” value is on record as 50.7% in assay [3] (5.0 μM), 20.4% in assay [3] (10.0 μM) and 8% in assay [3] (50.0 μM). Besides, the “Phosphorylation (%) p-Nucleolin (Cdk1)” value in assay [7] (treatment time 6 (hours)) was 96.9%; in assay [7] (treatment time 12 (hours)), 11.7%; in assay [7] (treatment time 18 (hours)), 3.1%; in assay [7] (treatment time 24 (hours)) it was 3.0%. The Cdk7 activity worked out at 92.2% in assay [4] (10 nM), 91.1% in assay [4] (100 nM) and 6.5% in assay [4] (1000 nM).
